Positions of bridges follow the written chain, without caps; N, C: chain ends. Non-standard residues stand in square brackets, D forms with d. Residues, ends and D or L forms follow the SMILES beside them. *: point of attachment. Trp(1-CH2COOH) = N[C@@H](Cc1cn(CC(=O)O)c2ccccc12)C(=O)O; Gly(octyl) = CCCCCCCC[C@H](N)C(=O)O; Hyp = O=C(O)[C@@H]1C[C@@H](O)CN1; NHhexadecyl = CCCCCCCCCCCCCCCCN*; NMeNle = CCCC[C@H](NC)C(=O)O; NMeA = CN[C@@H](C)C(=O)O; Aun = NCCCCCCCCCCC(=O)O; Dab = NCC[C@H](N)C(=O)O; Dap = NC[C@H](N)C(=O)O

T1 sequence (Q9NZQ7 with tags, fused parts or gaps): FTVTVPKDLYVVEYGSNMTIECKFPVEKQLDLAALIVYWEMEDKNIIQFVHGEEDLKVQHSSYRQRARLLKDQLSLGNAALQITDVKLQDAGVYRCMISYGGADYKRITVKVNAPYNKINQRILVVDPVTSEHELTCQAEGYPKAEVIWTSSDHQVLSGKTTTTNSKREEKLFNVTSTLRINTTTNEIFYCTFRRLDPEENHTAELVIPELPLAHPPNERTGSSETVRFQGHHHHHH

One assay concerns the target T1, PD-L1 (Homo sapiens, UniProt Q9NZQ7).
T1 construct: hPDL1(19-239)-TVMV-His; made in house; host or cells: HEK293T
Nature of the assay: PD-1/PD-L1 Homogenous Time-Resolved Fluorescence (HTRF) binding assay (PD-1-Ig/PD-L1-His). To be noted: inhibition of PD-1-Ig binding to PD-L1-TVMV-His; value given as number; read-out: HTRF IC50. The essentials:
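HTRF competition in dPBS with 0.1% BSA and 0.05% Tween-20: 20 nM PD-1-Ig added after 15 min compound pre-incubation with 10 nM PD-L1-His, then another 15 min. Signal (665/620 nm) after 30 min with APC anti-His (20 nM) and Eu anti-Ig (1 nM).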
Background: TR-FRET usually uses a lanthanide donor and a delayed reading to cut background.
For orientation: IC50 means the concentration that gives 50% inhibition. Regarding `CCCC[C@H]1C(=O)N(C)[C@@H](CCCC)C(=O)N[C@@H](CC(C)C)C(=O)N[C@H](C(=O)NCC(=O)NCC(=O)NCC(=O)NCCCCCCCCCCC(=O)O)CSCC(=O)N[C@@H](Cc2ccc(O)cc2)C(=O)N(C)[C@@H](C)C(=O)N[C@@H](CCC(=O)O)C(=O)N2CCC[C@H]2C(=O)N[C@@H](Cc2cnc[nH]2)C(=O)N[C@@H](CCCCN)C(=O)N2C[C@H](O)C[C@H]2C(=O)N[C@@H](Cc2c[nH]c3ccccc23)C(=O)N[C@@H](CCCCN)C(=O)N[C@@H](Cc2cn(CC(=O)O)c3ccccc23)C(=O)N1C` [Example 11092] ({CH2CO}-Y[NMeA]EPHK[Hyp]WK[Trp(1-CH2COOH)][NMeNle][NMeNle]LCGGG[Aun]-OH; thioether N-14), the IC50 was determined as 13.5 nM.

As for `CCCC[C@H]1C(=O)N(C)[C@@H](CCCC)C(=O)N[C@@H](CC(C)C)C(=O)N[C@H](C(=O)NCC(=O)NCC(=O)NCC(=O)NCCCCCCCCCCC(=O)O)CSCC(=O)N[C@@H](Cc2ccc(O)cc2)C(=O)N(C)[C@@H](C)C(=O)N[C@@H](CC(N)=O)C(=O)N2CCC[C@H]2C(=O)N[C@@H](CN)C(=O)N[C@@H](CCC(N)=O)C(=O)N2C[C@H](O)C[C@H]2C(=O)N[C@@H](Cc2c[nH]c3ccccc23)C(=O)N[C@@H](CCN)C(=O)N[C@@H](Cc2cn(CC(=O)O)c3ccccc23)C(=O)N1C` [Example 11094] ({CH2CO}-Y[NMeA]NP[Dap]Q[Hyp]W[Dab][Trp(1-CH2COOH)][NMeNle][NMeNle]LCGGG[Aun]-OH; thioether N-14), the 50% inhibitory concentration (IC50) was 18.8 nM.

Turning to `CCCC[C@H]1C(=O)N(C)[C@@H](CCCC)C(=O)N[C@@H](CC(C)C)C(=O)N[C@H](C(=O)NCC(=O)N[C@H](CC(=O)O)C(=O)NCCCCCCCCCCC(=O)O)CSCC(=O)N[C@@H](Cc2ccc(O)cc2)C(=O)N(C)[C@@H](C)C(=O)N[C@@H](CC(N)=O)C(=O)N2CCC[C@H]2C(=O)N[C@@H](CN)C(=O)N[C@@H](CC(C)C)C(=O)N2C[C@H](O)C[C@H]2C(=O)N[C@@H](Cc2c[nH]c3ccccc23)C(=O)N[C@@H](CCN)C(=O)N[C@@H](Cc2cn(CC(=O)O)c3ccccc23)C(=O)N1C` [Example 11101] ({CH2CO}-Y[NMeA]NP[Dap]L[Hyp]W[Dab][Trp(1-CH2COOH)][NMeNle][NMeNle]LCG[dD][Aun]-OH; thioether N-14), the IC50 was found to be 4.1 nM. The same measure, in the same setting: as for `CCCCCCCC[C@H](NC(=O)CCCCCCCCCCNC(=O)[C@@H]1CSCC(=O)N[C@@H](Cc2ccc(O)cc2)C(=O)N(C)[C@@H](C)C(=O)N[C@@H](CC(N)=O)C(=O)N2CCC[C@H]2C(=O)N[C@@H](CN)C(=O)N[C@@H](CC(C)C)C(=O)N2C[C@H](O)C[C@H]2C(=O)N[C@@H](Cc2c[nH]c3ccccc23)C(=O)N[C@@H](CCN)C(=O)N[C@@H](Cc2cn(CC(=O)O)c3ccccc23)C(=O)N(C)[C@@H](CCCC)C(=O)N(C)[C@@H](CCCC)C(=O)N[C@@H](CC(C)C)C(=O)N1)C(=O)O` [Example 11102] ({CH2CO}-Y[NMeA]NP[Dap]L[Hyp]W[Dab][Trp(1-CH2COOH)][NMeNle][NMeNle]LC[Aun][Gly(octyl)]-OH; thioether N-14), the figure is 13 nM.

The same assay, now with this note: inhibition of PD-1-Ig binding to PD-L1-TVMV-His; value given as range class; read-out: HTRF IC50.
Consider `CCCC[C@H]1C(=O)N(C)[C@@H](CCCC)C(=O)N[C@@H](CC(C)C)C(=O)N[C@H](C(=O)NCC(=O)NCC(=O)NCC(=O)NCCCCCCCCCCC(=O)O)CSCC(=O)N[C@@H](Cc2ccc(O)cc2)C(=O)N(C)[C@@H](C)C(=O)N[C@@H](CC(N)=O)C(=O)N2CCC[C@H]2C(=O)N[C@@H](CN)C(=O)N[C@@H](CCC(=O)O)C(=O)N2C[C@H](O)C[C@H]2C(=O)N[C@@H](Cc2c[nH]c3ccccc23)C(=O)N[C@@H](CCN)C(=O)N[C@@H](Cc2cn(CC(=O)O)c3ccccc23)C(=O)N1C` [Example 11093] ({CH2CO}-Y[NMeA]NP[Dap]E[Hyp]W[Dab][Trp(1-CH2COOH)][NMeNle][NMeNle]LCGGG[Aun]-OH; thioether N-14), for which the IC50 lay within 10 to 99 nM. Same read-out and setting: as for `CCCC[C@H]1C(=O)N(C)[C@@H](CCCC)C(=O)N[C@@H](CC(C)C)C(=O)N[C@H](C(=O)NCC(=O)NCC(=O)NCC(=O)NCCCCCCCCCCC(=O)O)CSCC(=O)N[C@@H](Cc2ccc(O)cc2)C(=O)N(C)[C@@H](C)C(=O)N[C@@H](CC(=O)O)C(=O)N2CCC[C@H]2C(=O)N[C@@H](CN)C(=O)N[C@@H](CCC(N)=O)C(=O)N2C[C@H](O)C[C@H]2C(=O)N[C@@H](Cc2c[nH]c3ccccc23)C(=O)N[C@@H](CCN)C(=O)N[C@@H](Cc2cn(CC(=O)O)c3ccccc23)C(=O)N1C` [Example 11095] ({CH2CO}-Y[NMeA]DP[Dap]Q[Hyp]W[Dab][Trp(1-CH2COOH)][NMeNle][NMeNle]LCGGG[Aun]-OH; thioether N-14), the figure is 0.3 to 9.9 nM; as for `CCCC[C@H]1C(=O)N(C)[C@@H](CCCC)C(=O)N[C@@H](CC(C)C)C(=O)N[C@H](C(=O)NCC(=O)NCC(=O)NCC(=O)NCCCCCCCCCCC(=O)O)CSCC(=O)N[C@@H](Cc2ccc(O)cc2)C(=O)N(C)[C@@H](C)C(=O)N[C@@H](CC(=O)O)C(=O)N2CCC[C@H]2C(=O)N[C@@H](CN)C(=O)N[C@@H](CC(C)C)C(=O)N2C[C@H](O)C[C@H]2C(=O)N[C@@H](Cc2c[nH]c3ccccc23)C(=O)N[C@@H](CCN)C(=O)N[C@@H](Cc2cn(CC(=O)O)c3ccccc23)C(=O)N1C` [Example 11096] ({CH2CO}-Y[NMeA]DP[Dap]L[Hyp]W[Dab][Trp(1-CH2COOH)][NMeNle][NMeNle]LCGGG[Aun]-OH; thioether N-14), 10 to 99 nM. Same read-out and setting: the same measure for `CCCC[C@H]1C(=O)N(C)[C@@H](CCCC)C(=O)N[C@@H](CC(C)C)C(=O)N[C@H](C(=O)NCC(=O)NCC(=O)NCC(=O)NCCCCCCCCCCC(=O)O)CSCC(=O)N[C@@H](Cc2ccc(O)cc2)C(=O)N(C)[C@@H](C)C(=O)N[C@@H](CC(=O)O)C(=O)N2CCC[C@H]2C(=O)N[C@@H](CN)C(=O)N[C@@H](CCC(=O)O)C(=O)N2C[C@H](O)C[C@H]2C(=O)N[C@@H](Cc2c[nH]c3ccccc23)C(=O)N[C@@H](CCN)C(=O)N[C@@H](Cc2cn(CC(=O)O)c3ccccc23)C(=O)N1C` [Example 11097] ({CH2CO}-Y[NMeA]DP[Dap]E[Hyp]W[Dab][Trp(1-CH2COOH)][NMeNle][NMeNle]LCGGG[Aun]-OH; thioether N-14): 10 to 99 nM; for `CCCC[C@H]1C(=O)N(C)[C@@H](CCCC)C(=O)N[C@@H](CC(C)C)C(=O)N[C@H](C(=O)NCC(=O)NCC(=O)NCC(=O)NCCCCCCCCCCC(=O)O)CSCC(=O)N[C@@H](Cc2ccc(O)cc2)C(=O)N(C)[C@@H](C)C(=O)N[C@@H](CC(=O)O)C(=O)N2CCC[C@H]2C(=O)N[C@@H](Cc2cnc[nH]2)C(=O)N[C@@H](CCC(=O)O)C(=O)N2C[C@H](O)C[C@H]2C(=O)N[C@@H](Cc2c[nH]c3ccccc23)C(=O)N[C@@H](CCN)C(=O)N[C@@H](Cc2cn(CC(=O)O)c3ccccc23)C(=O)N1C` [Example 11098] ({CH2CO}-Y[NMeA]DPHE[Hyp]W[Dab][Trp(1-CH2COOH)][NMeNle][NMeNle]LCGGG[Aun]-OH; thioether N-14): 10 to 99 nM; for `CCCC[C@H]1C(=O)N(C)[C@@H](CCCC)C(=O)N[C@@H](CC(C)C)C(=O)N[C@H](C(=O)NCC(=O)N[C@@H](CC(=O)O)C(=O)NCC(=O)NCCCCCCCCCCC(=O)O)CSCC(=O)N[C@@H](Cc2ccc(O)cc2)C(=O)N(C)[C@@H](C)C(=O)N[C@@H](CC(N)=O)C(=O)N2CCC[C@H]2C(=O)N[C@@H](CN)C(=O)N[C@@H](CC(C)C)C(=O)N2C[C@H](O)C[C@H]2C(=O)N[C@@H](Cc2c[nH]c3ccccc23)C(=O)N[C@@H](CCN)C(=O)N[C@@H](Cc2cn(CC(=O)O)c3ccccc23)C(=O)N1C` [Example 11099] ({CH2CO}-Y[NMeA]NP[Dap]L[Hyp]W[Dab][Trp(1-CH2COOH)][NMeNle][NMeNle]LCGDG[Aun]-OH; thioether N-14): 0.3 to 9.9 nM. Regarding `CCCC[C@H]1C(=O)N(C)[C@@H](CCCC)C(=O)N[C@@H](CC(C)C)C(=O)N[C@H](C(=O)NCC(=O)N[C@H](CC(=O)O)C(=O)NCC(=O)NCCCCCCCCCCC(=O)O)CSCC(=O)N[C@@H](Cc2ccc(O)cc2)C(=O)N(C)[C@@H](C)C(=O)N[C@@H](CC(N)=O)C(=O)N2CCC[C@H]2C(=O)N[C@@H](CN)C(=O)N[C@@H](CC(C)C)C(=O)N2C[C@H](O)C[C@H]2C(=O)N[C@@H](Cc2c[nH]c3ccccc23)C(=O)N[C@@H](CCN)C(=O)N[C@@H](Cc2cn(CC(=O)O)c3ccccc23)C(=O)N1C` [Example 11100] ({CH2CO}-Y[NMeA]NP[Dap]L[Hyp]W[Dab][Trp(1-CH2COOH)][NMeNle][NMeNle]LCG[dD]G[Aun]-OH; thioether N-14), the IC50 lay within 10 to 99 nM. In the case of `CCCCCCCC[C@H](NC(=O)CNC(=O)CNC(=O)CNC(=O)[C@@H]1CSCC(=O)N[C@@H](Cc2ccc(O)cc2)C(=O)N(C)[C@@H](C)C(=O)N[C@@H](CC(N)=O)C(=O)N2CCC[C@H]2C(=O)N[C@@H](CN)C(=O)N[C@@H](CC(C)C)C(=O)N2C[C@H](O)C[C@H]2C(=O)N[C@@H](Cc2c[nH]c3ccccc23)C(=O)N[C@@H](CCN)C(=O)N[C@@H](Cc2cn(CC(=O)O)c3ccccc23)C(=O)N(C)[C@@H](CCCC)C(=O)N(C)[C@@H](CCCC)C(=O)N[C@@H](CC(C)C)C(=O)N1)C(=O)O` [Example 11103] ({CH2CO}-Y[NMeA]NP[Dap]L[Hyp]W[Dab][Trp(1-CH2COOH)][NMeNle][NMeNle]LCGGG[Gly(octyl)]-OH; thioether N-14), the IC50 was in the range of 10 to 99 nM.

On to `CCCCCCCCCCCCCCCCNC(=O)CNC(=O)CNC(=O)[C@@H]1CSCC(=O)N[C@@H](Cc2ccc(O)cc2)C(=O)N(C)[C@@H](C)C(=O)N[C@@H](CC(N)=O)C(=O)N2CCC[C@H]2C(=O)N[C@@H](CCN)C(=O)N[C@@H](CC(C)C)C(=O)N2C[C@H](O)C[C@H]2C(=O)N[C@@H](Cc2c[nH]c3ccccc23)C(=O)N[C@@H](CO)C(=O)N[C@@H](Cc2c[nH]c3ccccc23)C(=O)N(C)[C@@H](CCCC)C(=O)N(C)[C@@H](CCCC)C(=O)N[C@@H](CCCNC(=N)N)C(=O)N1` [Example 11104] ({CH2CO}-Y[NMeA]NP[Dab]L[Hyp]WSW[NMeNle][NMeNle]RCGG-NHhexadecyl; thioether N-14), for which the IC50 lay within 100 to 1600 nM.
